We go through seven compounds from patent US8168806B2, “Boron chelate complexes” (Chemetall GmbH, priority 2001, dated 2012).

Read-outs that look alike come from different tables or passages of the source.

The conditions of series [1]: room temperature; for Cond. (conductivity): at the concentration (mmole/g) printed in the cell to the left.
The conditions of series [2]: room temperature.
For series [3] the following is noted: 5% solution in water, stirring for 2 hours, room temperature.
The conditions of series [4]: prior art statement; cited from earlier work.
The conditions of series [5]: thermogravimetry.
For series [6] the following is noted: 0.5 molar solution in γ-butyrolactone, nickel electrodes, FIG. 1.
For series [7] the following is noted: in propylene carbonate; Xu and Angell 2001; cited from earlier work.
The nature of series [8]: Qualitative solubility of the product of Example 3 in organic solvents. Format: physicochemical. To be noted: in propylene carbonate, γ-butyrolactone, 1,2-dimethyoxyethane, acetone and dimethylformamide.
Where [9] appears, read: in 1,2-DME (1,2-dimethoxyethane).

On to `O=C1O[B-]2(OC1=O)OC(=O)C(=O)O2.[Li+]` [LOB, Lithium-bis(oxalato)borate], for which, in series [1] (in γ-BL), the “Cond. (conductivity)” value amounted to 6.96 mS/cm. The Solubility in series [2] (setting [9]) was determined as 1.30 mol/kg; in series [2] (in PC (propylene carbonate)) it was 0.88 mol/kg; in series [2] (in THF (tetrahydrofuran)) it was 1.90 mol/kg; in series [2] (in acetone), 1.82 mol/kg; in series [2] (in γ-BL (γ-butyrolactone)), 1.55 mol/kg. In addition, the Degree of hydrolysis in series [3] was over 50%. For the same compound, the “Electrochemical stability / electrochemical window up to” value in series [4] is listed as “about 4.5 V”.

In the case of `CC1O[B-]2(OC(=O)C(=O)O2)OC1=O.[Li+]` (stereo not shown) [LLOB, Lithium-(lactato,oxalato)borate], the “Cond. (conductivity)” value in series [1] (in 1,2-DME) worked out at 6.52 mS/cm; in series [1] (in THF) it was 2.91 mS/cm; in series [1] (in γ-BL), 2.61 mS/cm. Also, the Solubility in series [2] (setting [9]) is 0.93 mol/kg; in series [2] (in PC (propylene carbonate)) it was 0.17 mol/kg; in series [2] (in THF (tetrahydrofuran)) it was 1.59 mol/kg; in series [2] (in acetone), 1.38 mol/kg; in series [2] (in γ-BL (γ-butyrolactone)), 0.96 mol/kg. Also, the “TGA: decomposition starts at” value in series [5] was “ca. 270 °C”. In series [6], the “Electrochemical window (upper limit of stability, Li/Li+=0)” value is given as “ca. 5 V”.

Consider `O=C1CC(=O)O[B-]2(O1)OC(=O)CC(=O)O2.[Li+]` [LMB, Lithium-bis(malonato)borate], for which the entries for the “Cond. (conductivity)” value in series [1] (in THF) and in series [1] (in γ-BL) were 0.01 mS/cm and 1.65 mS/cm, respectively. Besides, the Solubility in series [7] is 80 mM; in series [2] (setting [9]), 0.003 mol/kg; in series [2] (in PC (propylene carbonate)) it was 0.02 mol/kg; in series [2] (in THF (tetrahydrofuran)), 0.09 mol/kg; in series [2] (in acetone), 0.03 mol/kg; in series [2] (in γ-BL (γ-butyrolactone)) it was 0.13 mol/kg. Besides, in series [3], the Degree of hydrolysis is reported as 5%. For the same compound, the “Electrochemical stability / electrochemical window up to” value in series [4] is given as “up to 5 V”.

As to `O=C1O[B-]2(OC1=O)OC(=O)c1ccccc1O2.[H+]` [HSOB, hydrogen-(salicylato, oxalato)borate], the Solubility in words entry in series [8] is “extremely soluble”.

With `CC1O[B-]2(OC1=O)OC(=O)C(C)O2.[Li+]` (stereo not shown) [LLB, Lithium-bis(lactato)borate], the “Concn. column: solubility in words” value in series [1] (in 1,2-DME) and in series [1] (in THF) was “insoluble” throughout. The “Cond. (conductivity)” value was 0 mS/cm in series [1] (in 1,2-DME), 0 mS/cm in series [1] (in THF) and 0.01 mS/cm in series [1] (in γ-BL). In addition, the Solubility is under 0.01 mol/kg in series [2] (setting [9]); under 0.01 mol/kg in series [2] (in PC (propylene carbonate)); under 0.01 mol/kg in series [2] (in THF (tetrahydrofuran)); under 0.01 mol/kg in series [2] (in acetone); 0.02 mol/kg in series [2] (in γ-BL (γ-butyrolactone)).

Turning to `O=C1O[B-]2(OC1=O)OC(=O)c1ccccc1O2.[Li+]` [LOSB, Lithium-(oxalato,salicylato)borate], the “Cond. (conductivity)” value was 4.17 mS/cm in series [1] (in 1,2-DME) and 3.17 mS/cm in series [1] (in THF). Also, the Solubility in series [2] (setting [9]) is 0.43 mol/kg; in series [2] (in PC (propylene carbonate)) it was 1.50 mol/kg; in series [2] (in THF (tetrahydrofuran)), 1.21 mol/kg; in series [2] (in acetone) it was 0.51 mol/kg; in series [2] (in γ-BL (γ-butyrolactone)) it was 0.98 mol/kg. The “TGA: decomposition starts at” value in series [5] was “ca. 210 °C”.

As for `O=C1CC(=O)O[B-]2(O1)OC(=O)C(=O)O2.[Li+]` [LOMB, Lithium-(malonato,oxalato)borate], the figures for the “Cond. (conductivity)” value in series [1] (in THF) and in series [1] (in γ-BL) were 0.41 mS/cm and 3.59 mS/cm, respectively. In addition, the Solubility in series [2] (setting [9]) is 0.20 mol/kg; in series [2] (in PC (propylene carbonate)), 0.17 mol/kg; in series [2] (in THF (tetrahydrofuran)), 0.17 mol/kg; in series [2] (in acetone) it was 0.43 mol/kg; in series [2] (in γ-BL (γ-butyrolactone)), 0.62 mol/kg. The compound further showed a Degree of hydrolysis in series [3] of 15%.
